# Measured values: US4368194A, “Pharmacologically active amine boranes” (The United States of America as represented by the …, priority 1981, dated 1983)
# Read-outs that look alike come from different tables or passages of the source.
# What was measured:
# [1] = tested on: carrageenan induced edema in mouse foot pads; test: Anti-inflammatory screen (carrageenan induced foot edema); type: in vivo, mice; conditions: for Anti-inflammatory Screen: 10 mg/kg × 2 intraperitoneally, mice; for inhibition of the carrageenan induced edema in mouse foot pads: text summary of Table II
# Procedure: CF1 male mice (about 30 g) were administered test drugs at 10 mg/kg in 0.05% polysorbate .80-water intraperitoneally 3 hr and 30 min prior to 0.05 ml of 2% carrageenan in 0.9% saline injected into the plantar surface of the right hind foot. Saline injected into the left hind foot served as a base line. After 3 hr, both feet were excised at the tibiotarsal (ankle) joint according to the modified (Roszkowski et al., J. Pharm. Exp. Ther., 179, 114 1971) method of Winter, resulting in an 87 mg net increase in the weight of the control animals' feet.
# [2] = tested on: CF1 male mice; test: Writhing reflex (acetic acid); type: in vivo; conditions: for Writhing Reflex: 20 mg/kg intraperitoneally, mice; for inhibition of the writhing reflex: text summary of Table II
# Procedure: CF1 male mice were administered test drugs at 20 mg/kg intraperitoneally 20 min (see Hendershat et al., J. Pharmacol Exp. Ther. 125, 237 1959) prior to the administration of 0.5 ml of 0.6% acetic acid (Vingar et al., European J. PHarmacol, 37, 23 1976). After 5 min the number of stretches, characterized by repeated contractures of the abdominal musculature accompanied by extension of the hind limbs, was counted for the next 10 min. The control mice had 78 stretch reflexes per 10 min.
# [3] = tested on: Sprague Dawley rats; test: Red and white blood cell counts after 3 weeks dosing; type: in vivo
# Source text: Hematocrits were also obtained.
# [4] = tested on: Acid phosphatase; test: Lysosomal free acid phosphatase activity, liver homogenate; type: biochemical, rats; conditions: 5 μmoles, in vitro; 20 min
# Procedure: (§1) Lysosomal enzymatic assays - Sprague Dawley rats (about 160 g) were sacrificed, the liver excised, and a 10% homogenate (4x) in 0.25 M sucrose and 0.001 M (ethylenedinitrilo) tetra acetic acid, ph 7.2 was prepared.
# (§2) Acid phosphatase activity (Gianetto et al., Biochem J., 59, 433 1955) was carried out by incubating with 0.1 Mβ-glycerol phosphate in 0.1 M acetate, pH 5.0 with 5 μmoles of test drugs in 1% carboxymethylcellulose (CMC) for 20 min with liver homogenate and 60 min with resuspended PMNs. Lysosome enzymes were released by 0.02% alkyl phenoxy polyethoxy ethanol-100 to obtain the total enzymatic activity. The reaction was stopped with 10% trichloroacetic acid and the solution centrifuged. Aliquots of the supernatant were assayed for inorganic phophate content by the method of Chen et al., Anal Chem., 28, 1756 (1956). Percent free acid phosphatase was calculated. Cathepsin activity was determined in an analagous manner except the substrate used was 2% azocasein (Schleuning et al., Methods in Enzymology, XLV, 330 1976) in 0.1 M acetate buffer pH 5.0. The supernatant was assayed for acid soluble peptide fragments at 366 nm. Percent free cathepsin activity was calculated.
# [5] = tested on: Cathepsin; test: Lysosomal free cathepsin activity, liver homogenate; type: biochemical, rats; conditions: 5 μmoles; for Liver % Free Cathepsin Activity, pH5: in vitro, 20 min
# Procedure: as §1, §2
# [6] = tested on: Acid phosphatase; test: Lysosomal free acid phosphatase activity, PMNs; type: cell-based; conditions: 5 μmoles, in vitro; 60 min
# Procedure: (§3) Polymorphonuclear neutrophils (PMNs) were collected from the peritoneal cavity four hr after the injection of 35 ml of 0.5% oyster glycogen in isotonic saline (Orange et al., J. Exp. Med., 127, 767 1968). The PMNs were centrifuged down at 800 g for 20 min, washed, and resuspended in minumen essential medium (MEM) with 10% fetal calf serum pH 7.4.
# as §2
# [7] = tested on: Cathepsin; test: Lysosomal free cathepsin activity, PMNs; type: cell-based; conditions: 5 μmoles; for PMNs % Free Cathespin Activity, pH5: in vitro, 60 min
# Procedure: as §3, §2
# [8] = tested on: cAMP levels in PMNs; test: Cyclic-3',5'-adenosine monophosphate levels (cAMP) in PMNs; type: cell-based; conditions: for activity at 5 µmol / activation at 5 µmol: 1 h; for activation at 5 µmol: read-out: increase of cyclic adenosine monophosphate levels in PMNs
# Procedure: as §3
# Isolated PMNs were incubated with test drugs at 5μ moles for 1 hr at 37° C. in MEM at pH 7.4. The reaction was stopped with 6% trichloroacetic acid. The cyclic-3',5'-adenosine monophosphate levels were determined by the radioimmunoassay of Gilman, Proc. Natl. Acad. Sci. (USA), 67, 305 (1970), using 3H(G)-cyclic-3',5'-adenosine monophosphate (39.8 Cu/m mol). Results were calculated in p mole/10^7 PMNs cells.
# [9] = biological target: T1, prostaglandin synthetase from beef seminal vesicle (Bos taurus, UniProt O62664); test: Prostaglandin synthetase activity; type: biochemical; conditions: 10^-6 M; for inhibition at 1 µM: read-out: inhibition of prostaglandin synthesis; for activity at 1 µM: 1 h, read-out: Prostaglandin Synthesis
# T1 construct: purchased; host or cells: beef seminal vesicle
# T1 sequence (O62664 25-600): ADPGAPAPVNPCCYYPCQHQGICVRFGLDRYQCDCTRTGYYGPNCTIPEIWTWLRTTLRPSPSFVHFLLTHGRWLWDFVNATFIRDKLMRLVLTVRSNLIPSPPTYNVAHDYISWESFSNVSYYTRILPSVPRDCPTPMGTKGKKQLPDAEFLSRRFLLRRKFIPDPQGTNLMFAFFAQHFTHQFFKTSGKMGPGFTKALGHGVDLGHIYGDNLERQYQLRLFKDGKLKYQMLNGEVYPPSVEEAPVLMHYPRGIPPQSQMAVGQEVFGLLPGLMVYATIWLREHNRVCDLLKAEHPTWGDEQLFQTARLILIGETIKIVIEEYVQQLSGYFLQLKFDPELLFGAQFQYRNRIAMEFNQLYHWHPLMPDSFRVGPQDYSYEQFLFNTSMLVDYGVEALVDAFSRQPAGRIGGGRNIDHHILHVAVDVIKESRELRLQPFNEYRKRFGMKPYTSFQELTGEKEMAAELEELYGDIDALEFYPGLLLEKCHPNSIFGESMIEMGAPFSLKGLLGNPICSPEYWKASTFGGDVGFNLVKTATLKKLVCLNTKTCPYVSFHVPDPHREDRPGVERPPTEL
# Procedure: After 1 hr at 37° C. the reaction was stopped with 1 N HCl and extracted with ethyl ether and evaporated. […] The plates were dried and developed in iodine vapor and with the use of prostaglandin standards the appropriate areas were scraped and counted for ^3 H content. Indometacin was used as a standard at 10^-4 M concentration. Test drugs were used at 10^-6 M.
# [10] = tested on: liver mitochondria; test: Oxidative phosphorylation, succinate as substrate; type: biochemical, rats; conditions: 5 μmoles; for Oxidative Phosphorylation Succinate State 3: ADP stimulated respiration; for Oxidative Phosphorylation Succinate State 4: basal respiration
# Procedure: (§4) Basal and adenosine diphosphate stimulated respiration on 10% liver homogenates was measured using succinate or αketoglutarate as substrate. See Glatt, et al., supra. The reaction vessel contained sucrose 55μ moles, KCl 22μ moles, K2 HPO4 22μ moles, test compounds at 5μ moles in 1% CMC and sodium succinate 90μ moles or αketoglutarate 60μ moles in a total volume of 1.8 ml. […] The rate of respiration was calculated at μl of O2 consumed/hr/mg wet weight of liver.
# [11] = tested on: liver mitochondria; test: Oxidative phosphorylation, α-ketoglutarate as substrate; type: biochemical, rats; conditions: 5 μmoles; for Oxidative Phosphorylation α Ketoglutarate State 3: ADP stimulated respiration; for Oxidative Phosphorylation α Ketoglutarate State 4: basal respiration
# Procedure: as §4
# [12] = in vivo; conditions: mouse
# [13] = dosing for three weeks intraperitoneally, rats
# [14] = pH 7.4, read-out: PMNs cAMP Level
# [15] = pH 7.4, 5 μmoles, in vitro, read-out: PMNs cAMP Level
Compound,Anti-inflammatory Screen [1] [% Control],Writhing Reflex [2] [% Control],"alteration of the red blood or white blood cell count/cu mm [3, 13]","Liver % Free Acid Phosphatase Activity, pH5 [4] [% Control]",inhibition of free proteolytic cathepsin activity of liver [5],"Liver % Free Cathepsin Activity, pH5 [5] [% Control]","PMNs % Free Acid Phosphatase Activity, pH5 [6] [% Control]",inhibition of PMN cathepsin activity [7],"PMNs % Free Cathespin Activity, pH5 [7] [% Control]","activity at 5 µmol [8, 14] [%]",inhibition at 1 µM [9] [%],activity at 1 µM [9] [%],both states 3 and 4 respiration with succinate [10],Oxidative Phosphorylation Succinate State 3 [10] [% Control],Oxidative Phosphorylation Succinate State 4 [10] [% Control],Oxidative Phosphorylation α Ketoglutarate State 3 [11] [% Control],Oxidative Phosphorylation α Ketoglutarate State 4 [11] [% Control],LD50 [12] [mg/kg],inhibition of the carrageenan induced edema in mouse foot pads [1],inhibition of the writhing reflex [2] [%],other results
"C[N+](C)([BH2-]C#N)CCC#N [XIX, 3-Dimethylaminopropionitrile-cyanoborane]",74,89,no alteration,66 ± 4,at least 75%,15 ± 3,100 ± 9,at least 82%,17 ± 5,199,> 30,53 ± 7,inhibited,24 ± 7,43 ± 16,33 ± 8,105 ± 33,140,–,–,activation at 5 µmol [8]: 99%
[Na{H3 N.BH2 (CN)}6 ]I [Compound X],57,12,–,–,–,–,–,–,0 ± 3,–,–,–,–,–,–,–,–,–,at least 40%,80,"alteration of the red blood or white blood cell count/cu mm ([3]; rat, in vivo, ip): no alteration; PMNs cAMP Level ([8]; 5 μmoles, in vitro, 60 min): 361 % Control; increase of cyclic adenosine monophosphate levels in PMNs ([8]; in vitro incubation, 5 μmoles): 261%; Prostaglandin Synthesis ([9]; 60 min, 1 µM): 42 ± 5 % Control"
"[BH3-][NH+]1CCOCC1 [Compound II, O(CH2 CH2)2 NH.BH3]",55,15,no alteration,75 ± 8,–,107 ± 6,79 ± 5,–,93 ± 7,–,–,100 ± 5,–,66 ± 10,115 ± 15,50 ± 11,97 ± 29,–,at least 40%,80,"activity at 5 µmol [8, 15]: 107%"
"C[N+](C)([BH2-]C#N)CC[N+](C)(C)[BH2-]C#N [XI, N,N,N^1,N^1 -Tetramethylethylenediamine-bis(cyanoborane)]",95,76,–,80 ± 6,–,50 ± 7,84 ± 5,at least 82%,16 ± 5,94,–,85 ± 4,–,122 ± 13,116 ± 8,106 ± 21,168 ± 38,200,–,–,–
"C[N+](C)([BH2-]C(=O)O)CC[N+](C)(C)[BH2-]C(=O)O [XII, N,N,N^1,N^1 -Tetramethylethylenediamine-bis(carboxyborane)]",58,54,–,69 ± 5,at least 75%,23 ± 6,84 ± 4,–,52 ± 4,–,> 30,60 ± 6,inhibited,57 ± 16,80 ± 11,48 ± 30,122 ± 15,> 1000,at least 40%,–,"activity at 5 µmol [8, 15]: 155%; activation at 5 µmol ([8]; in vitro incubation, 5 μmoles): 55%; uncoupling with α-ketoglutarate as substrate [11]: uncoupling"
